Counter-ions that a name gives are not always drawn. Like-named read-outs stand apart in the source and are kept apart here.
Columns and labels:
[1] = molecular target: dihydropteroic acid biosynthesis (DHPB): hydroxymethyldihydropteridine pyrophosphokinase and dihydropteroate synthetase; assay: coupled assay of dihydropteroic acid biosynthesis (kinase + synthetase), 14C H2pteroate formation; format: biochemical; details: coupled assay method; E. coli extract, 0-50% ammonium sulfate fraction; 14C in H2 pteroate from p-aminobenzoate-7-14C; read-out: Concentration in μM required to give 50% inhibition of DHPB
Source text: Potential inhibitors of DHPB synthesis may be tested by investigating the inhibitory effect they impose in the enzymes responsible for the biosynthesis of dihydropteroic acid (DPtA), namely hydroxymethyldihydropteridine pyrophosphokinase (HMPPS), and dihydropteroate synthetase, hereinafter referred to as `synthetase`. In the following reaction equations the compounds are referred to by their abbreviated forms defined hereinbefore in the specification. [formula]
This reaction requires two enzymes since the starting substrates are H2 ptCH2 OH, ATP, and pAB, and the products are H2 pteroate and AMP.
The reactions are followed by determining the amount of ^14 C in H2 pteroate after separation from the substrate, p-aminobenzoate-7-^14 C, by paper chromatography.

pKa values = format: physicochemical

Row | SMILES | IC50 [1] [µM] | pKa (pKa values; read-out: pKa values (first value)) | pKa (pKa values; read-out: pKa values (second value))
1 | COc1cc(OC)c(C(=O)Cc2nn(C)c3nc(N)[nH]c(=O)c3c2=O)c(OC)c1 [7-Amino-3-(2,4,6-trimethoxyphenacyl)-1-methylpyrimido(4,5-c)pyridazine-4,5(1H, 6H)-dione] | 2.7 |  | 
2 | COc1ccc(C(=O)Cc2nn(C)c3nc(N)[nH]c(=O)c3c2=O)c(OC)c1 [7-Amino-3-(2,4-dimethoxyphenacyl)-1-methylpyrimido(4,5-c)pyridazine-4,5(1H,6H)-dione] | 0.14 |  | 
3 | COc1ccc(OC)c(C(=O)Cc2nn(C)c3nc(N)[nH]c(=O)c3c2=O)c1 [7-Amino-3-(2,5-dimethoxyphenacyl)-1-methylpyrimido(4,5-c)pyridazine-4,5(1H,6H)-dione] | 0.06 |  | 
4 | COc1cc(C(=O)Cc2nn(C)c3nc(N)[nH]c(=O)c3c2=O)cc(OC)c1OC [7-Amino-3-(3,4,5-trimethoxyphenacyl)-1-methylpyrimido(4,5-c)pyridazine-4,5(1H, 6H)-dione] | 0.03 |  | 
5 | COc1ccc(C(=O)Cc2nn(C)c3nc(N)[nH]c(=O)c3c2=O)cc1OC [7-Amino-3-(3,4-dimethoxyphenacyl)-1-methylpyrimido(4,5-c)pyridazine-4,5(1H,6H)-dione] | 0.15 |  | 
6 | Cn1nc(CC(=O)c2cccc(O)c2)c(=O)c2c(=O)[nH]c(N)nc21 [7-Amino-3-(3-hydroxyphenacyl)-1-methylpyrimido(4,5-c)pyridazine-4,5(1H, 6H)-dione] | 0.22 |  | 
7 | Cn1nc(Cc2ccccc2[N+](=O)[O-])c(=O)c2c(O)nc(N)nc21 [7-amino-1-methyl-3-(2-nitrobenzyl)-4-oxo-5-hydroxy-1,4-dihydropyrimido(4,5-c)pyridazine] | 12 |  | 
8 | COc1cc(CC(C#N)c2nn(C)c3nc(N)nc(O)c3c2=O)cc(OC)c1OC (stereo not drawn) [7-amino-1-methyl-3-(α-cyano-3,4,5-trimethoxyphenethyl)-4-oxo-5-hydroxy-1,4-dihydropyrimido(4,5-c)pyridazine] | 11 |  | 
9 | COc1cc(Cc2nn(C)c3nc(N)nc(O)c3c2=O)cc(OC)c1OC [7-amino-3-(3,4,5-trimethoxybenzyl)-1-methyl-4-oxo-5-hydroxy-1,4-dihydropyrimido(4,5-c)pyridazine] | 0.77 |  | 
10 | COc1ccc(Cc2nn(C)c3nc(N)nc(O)c3c2=O)cc1OC [7-amino-3-(3,4-dimethoxybenzyl)-1-methyl-4-oxo-5-hydroxy-1,4-dihydropyrimido(4,5-c)pyridazine] | 0.86 |  | 
11 | CCc1nn(C)c2nc(N)[nH]c(=O)c2c1=O [C2 H5] | 33 |  | 
12 | Cn1nc(-c2ccccc2)c(=O)c2c(O)nc(N)nc21 [C6 H5, 7-amino-1-methyl-3-phenyl-4-oxo-5-hydroxy-1,4-dihydropyrimido(4,5-c)pyridazine] | 15 |  | 
13 | Cn1nc(Cc2ccccc2)c(=O)c2c(O)nc(N)nc21 [CH2 C6 H5, 7-amino-1-methyl-3-benzyl-4-oxo-5-hydroxy-1,4-dihydropyrimido(4,5-c)pyridazine] | 11 |  | 
14 | CCOC(=O)CCc1nn(C)c2nc(N)[nH]c(=O)c2c1=O [CH2 CH2 CO2 C2 H5] | 16 |  | 
15 | Cn1nc(CCC(=O)O)c(=O)c2c(=O)[nH]c(N)nc21 [CH2 CH2 CO2 H] | 5.5 |  | 
16 | CCOC(=O)Cc1nn(C)c2nc(N)nc(O)c2c1=O [CH2 CO2 C2 H5, 7-amino-1-methyl-3-(ethoxycarbonylmethyl)-4-oxo-5-hydroxy-1,4-dihydropyrimido(4,5-c)pyridazine] | 6.2 |  | 
17 | Cn1nc(CC(=O)c2ccccc2)c(=O)c2c(=O)[nH]c(N)nc21 [CH2 COC6 H5, 7-Amino-3-phenacyl-1-methylpyrimido(4,5-c)pyridazine-4,5(1H, 6H)-dione] | 0.76 |  | 
18 | CC(=O)OCc1nn(C)c2nc(N)[nH]c(=O)c2c1=O [CH2 OCOCH3, 7-Amino-3-acetoxymethyl-1-mehylpyrimido(4,5-c)pyridazine-4,5(1H, 6H)-dione] | 15 |  | 
19 | Cn1nc(CO)c(=O)c2c(=O)[nH]c(N)nc21 [CH2 OH, 7-Amino-3-hydroxymethyl-1-methylpyrimido(4,5-c)pyridazine-4,5(1H, 6H)-dione Sodium Salt] | 12 |  | 
20 | Cc1nn(C)c2nc(N)[nH]c(=O)c2c1=O [CH3, 7-Amino-1,3-dimethylpyrimido(4,5-c)pyridazine-4,5-(1H, 6H)-dione] | 16 | 4.1 ± 0.1 | 8.6 ± 0.1
21 | CCOC(=O)C(C)c1nn(C)c2nc(N)[nH]c(=O)c2c1=O (stereo not shown) [CH(CH3)CO2 C2 H5, 7-Amino-3-(1-ethoxycarbonylethyl)-1-methylpyrimido(4,5-c)pyridazine-4,5(1H,6H)-dione] | 1.6 |  | 
22 | CC(C(=O)O)c1nn(C)c2nc(N)[nH]c(=O)c2c1=O (stereo not shown) [CH(CH3)CO2 H, 7-Amino-3-(1-carboxyethyl)-1-methylpyrimido(4,5-c)pyridazine-4,5(1H, 6H)-dione Disodium Salt] | 3.7 |  | 
23 | CCOC(=O)C(OC)c1nn(C)c2nc(N)[nH]c(=O)c2c1=O (stereo not shown) [CH(OCH3)CO2 C2 H5] | 17 |  | 
24 | COC(C(=O)O)c1nn(C)c2nc(N)nc(O)c2c1=O (stereo not shown) [CH(OCH3)CO2 H, 7-amino-1-methyl-3-((1-methoxy)carboxymethyl)-4-oxo-5-hydroxy-1,4-dihydropyrimido(4,5-c)pyridazine] | 2.8 |  | 
25 | Cn1nc(C(=O)O)c(=O)c2c(=O)[nH]c(N)nc21 [CO2 H (disodium salt), 7-Amino-3-carboxy-1-methylpyrimido(4,5-c)pyridazine-4,5(1H, 6H)-dione Disodium Salt] | 21 |  | 
26 | Cn1nc(-c2c[nH]c3ccccc23)c(=O)c2c(=O)[nH]c(N)nc21 [Example 3-Indolyl] | 30 |  | 
27 | CC(C)Cc1nn(C)c2nc(N)[nH]c(=O)c2c1=O [iso-C4 H9] | 20 |  | 
28 | CCCc1nn(C)c2nc(N)[nH]c(=O)c2c1=O [n-C3 H7] | 45 |  | 
29 | CCCCCCc1nn(C)c2nc(N)[nH]c(=O)c2c1=O [n-C6 H13] | 50 |  | 

From patent US4329362A, “2-Amino-4-(substituted hydrazino)-6-oxo pyrimidines” (Burroughs Wellcome Co., priority 1977, dated 1982)
